Laboratory results: ChEMBL document CHEMBL5380820, “Design and Discovery of Novel Cyclic Peptides as EDPs-EBP Interaction Inhibitors for the Treatment of Liver Fibrosis” (J Med Chem, 2023)
The source made the active and inactive calls. The rule behind the calls is not given here. Where a SMILES comes first, the peptide text is derived from it. Bridges are numbered along the chain shown (N, C = ends).

Assays:
Mus musculus [1] = test: Antifibrotic activity in CCl4-induced C57BL/6 mouse model of liver fibrosis assessed as reduction in serum ALT level treated at 150 ug/kg, ip daily for 3 weeks; assay type: functional, organism-based; details: dose 150.0 µg/kg
Mus musculus [2] = test: Antifibrotic activity in CCl4-induced C57BL/6 mouse model of liver fibrosis assessed as reduction in serum AST level treated at 150 ug/kg, ip daily for 3 weeks; assay type: functional, organism-based; details: dose 150.0 µg/kg
LX-2 [3] = test: Antifibrotic activity against TGF-beta induced human LX2 cells assessed as inhibition of collagen I expression by measuring fluorescence intensity relative to control; assay type: functional
LX2 [4] = test: Inhibition of elastin receptor complex elastin binding protein subunit in human LX2 cells assessed as inhibition of EDP induced PI3K phosphorylation treated at 10 uM for 24 hrs by Western blot analysis; assay type: cell-based
LX-2 [5] = test: Antifibrotic activity against TGF-beta induced human LX2 cells assessed as reduction of collagen I expression measured at 10 uM for 24 hrs by measuring fluorescence intensity relative to control; assay type: functional; parameters: scale not given: the % may be the effect or the level left
LX-2 [6] = test: Antifibrotic activity against TGF-beta induced human LX2 cells assessed as inhibition of neuraminidase activity using NA fluorogenic substrate by measuring fluorescence intensity relative to control; assay type: functional
LX2 [7] = test: Inhibition of elastin receptor complex elastin binding protein subunit in human LX2 cells assessed as inhibition of EDP induced AMPK phosphorylation treated at 10 uM for 24 hrs by Western blot analysis; assay type: cell-based
LX-2 [8] = test: Antiproliferative activity against TGF-beta induced human LX2 cells assessed as decrease in cell proliferation at 10 uM for 24 hrs by BeyoClick EdU cells proliferation kit with Alex Fluor 488 and DAPI staining analysis; assay type: functional, cell-based
LX-2 [9] = test: Antifibrotic activity against TGF-beta induced human LX2 cells assessed as inhibition of alpha-SMA expression by measuring fluorescence intensity relative to control; assay type: functional
LX-2 [10] = test: Antifibrotic activity against TGF-beta induced human LX2 cells assessed as reduction of alpha-SMA expression measured at 10 uM for 24 hrs by measuring fluorescence intensity relative to control; assay type: functional; parameters: scale not given: the % may be the effect or the level left
LX2 [11] = test: Inhibition of elastin receptor complex elastin binding protein subunit in human LX2 cells assessed as inhibition of EDP induced ERK phosphorylation treated at 10 uM for 24 hrs by Western blot analysis; assay type: cell-based
LX-2 [12] = test: Antifibrotic activity against TGF-beta induced human LX2 cells assessed as reduction of alpha-SMA expression derived peptide measured by Western blotting analysis; assay type: functional, cell-based; details: dose 0.01-100 µmol/L
Mus musculus [13] = test: Antifibrotic activity in CCl4-induced C57BL/6 mouse model of liver fibrosis assessed as reduction in alpha-SMA level treated at 150 ug/kg, ip daily for 3 weeks by Western blo analysis; assay type: functional, organism-based; details: dose 150.0 µg/kg
[14] = Tmax in Sprague-Dawley rat plasma at 0.1 mg/kg, sc by HPLC-MS/MS analysis; assay type: ADME, organism-based
[15] = Stability in mouse serum assessed as half life measured by RP-HPLC-MS analysis; assay type: ADME, cell-free
LX-2 [16] = test: Inhibition of cell migration in human LX2 cells assessed as decreased cell number in wound area measured at 0 to 24 hrs by wound healing assay; assay type: functional, cell-based; details: time 0-24 hrs
Mus musculus [17] = test: Antifibrotic activity in CCl4-induced C57BL/6 mouse model of liver fibrosis assessed as reduction of collagen deposition in liver treated at 150 ug/kg, ip daily for 3 weeks fasted for 9 hrs after last dose and sacrificed after 8 hrs of fasting by hematoxylin and eosin staining analysis; assay type: functional, organism-based; details: dose 150.0 µg/kg, time 3.033 weeks
[18] = Half life in Sprague-Dawley rat plasma at 0.1 mg/kg, sc by HPLC-MS/MS analysis; assay type: ADME, organism-based
Mus musculus [19] = test: Antifibrotic activity in CCl4-induced C57BL/6 mouse model of liver fibrosis assessed as decrease of hydroxyproline content in liver treated at 150 ug/kg ip daily for 3 weeks fasted for 9 hrs after last dose and sacrificed after 8 hrs of fasting by […] analysis; assay type: functional, organism-based; details: dose 150.0 µg/kg, time 3.033 weeks
LX-2 [20] = test: Antifibrotic activity against TGF-beta induced human LX2 cells assessed as reduction of alpha-SMA expression measured at 10 uM for 24 hrs by measuring fluorescence intensity; assay type: functional, cell-based
LX-2 [21] = test: Antifibrotic activity against TGF-beta induced human LX2 cells assessed as reduction of collagen I expression measured at 10 uM for 24 hrs by measuring fluorescence intensity; assay type: functional, cell-based
LX-2 [22] = test: Antifibrotic activity against TGF-beta induced human LX2 cells assessed as inhibition of neuraminidase activity using NA fluorogenic substrate measured at 10 uM for 24 hrs by measuring fluorescence intensity; assay type: functional, cell-based
[23] = Tmax in Sprague-Dawley rat plasma at 0.6 mg/kg, sc by HPLC-MS/MS analysis; assay type: ADME, organism-based
[24] = Half life in Sprague-Dawley rat plasma at 0.6 mg/kg, sc by HPLC-MS/MS analysis; assay type: ADME, organism-based
[25] = Stability in mouse serum measured at 0 to 48 hrs by RP-HPLC-MS analysis; assay type: ADME, cell-free; details: time 0-48 hrs

What does the source list for `Cc1ccc(=O)n(-c2ccccc2)c1`?
Activity (Mus musculus [1]): Active; Activity (Mus musculus [2]): Active

With `CC(C)C[C@H](NC(=O)[C@@H]1CCCN1C(=O)[C@H](CO)NC(=O)[C@H](C)NC(=O)[C@@H]1CCC(=O)N[C@@H](C(C)C)C(=O)N[C@@H](C(C)C)C(=O)NCC(=O)N[C@@H](CO)C(=O)N2CCC[C@H]2C(=O)N[C@@H](CO)C(=O)N[C@@H](C)C(=O)N[C@@H](CCC(N)=O)C(=O)N[C@@H](CC(=O)O)C(=O)N1)C(=O)O` (VVGSPSAQDEASPL-OH; lactam N-10) as the compound, how does the “inhibition (INH)” value (LX-2 [3]) read?
Its value is 33.5%.

What about the inhibition (LX2 [4]) of the same compound?
Its inhibition is “Active”.

What about the Activity (LX-2 [5]) of the same compound?
Its Activity is ~50%.

What about the “inhibition (INH)” value (LX-2 [6]) of the same compound?
Its value is 68%.

And the inhibition (LX2 [7])?
The inhibition was “Active”.

What about the Activity (LX-2 [8]) of the same compound?
The Activity was “Active”.

What about the “inhibition (INH)” value (LX-2 [9]) of the same compound?
The value was 34.8%.

And the Activity (LX-2 [10])?
The Activity was ~50%.

What about the inhibition (LX2 [11]) of the same compound?
Its inhibition is “Active”.

Which inhibition (LX-2 [3]) does the source give for `CC(C)[C@@H]1NC(=O)CNC(=O)[C@@H]2CCCN2C(=O)[C@H](CO)NC(=O)[C@H](C)NC(=O)[C@H](CCC(=O)O)NC(=O)[C@H](CC(=O)O)NC(=O)[C@H](CCC(N)=O)NC(=O)[C@H](C)NC(=O)[C@H](Cc2ccccc2)NC(=O)[C@@H]2CCCN2C(=O)[C@H](CO)NC(=O)CNC(=O)[C@H](C(C)C)NC1=O` (cyclo(AQDEASPGVVGSPF)) here?
The inhibition was “inactive”.

And the “inhibition (INH)” value (LX-2 [6])?
Its value is 40.9%.

What about the Activity (Mus musculus [1]) of the same compound?
Its Activity is “Active”.

And the Activity (Mus musculus [2])?
Its Activity is “Active”.

What about the “inhibition (INH)” value (LX-2 [9]) of the same compound?
The value was 0.1%.

And the Activity (LX-2 [12])?
Its Activity is “inactive”.

Which results are given for `CC(C)C[C@@H]1NC(=O)[C@@H]2CCCN2C(=O)[C@H](CO)NC(=O)CNC(=O)[C@H](C(C)C)NC(=O)[C@H](C(C)C)NC(=O)[C@H](CC(C)C)NC(=O)[C@@H]2CCCN2C(=O)[C@H](CO)NC(=O)[C@H](C)NC(=O)[C@H](CCC(=O)O)NC(=O)[C@H](CC(=O)O)NC(=O)[C@H](CCC(N)=O)NC(=O)[C@H](C)NC1=O` (cyclo(AQDEASPLVVGSPL))?
inhibition (INH) (LX-2 [3]): 9.8%; inhibition (INH) (LX-2 [6]): 9%; Activity (Mus musculus [1]): Active; Activity (Mus musculus [2]): Active; inhibition (INH) (LX-2 [9]): 1.7%

Which “inhibition (INH)” value (LX-2 [3]) does the source give for `CC(C)C[C@@H]1NC(=O)[C@@H]2CCCN2C(=O)[C@H](CO)NC(=O)[C@H](C)NC(=O)[C@H](CCC(=O)O)NC(=O)[C@H](CC(=O)O)NC(=O)[C@H](CCC(N)=O)NC(=O)[C@H](C)NC(=O)[C@H](CO)NC(=O)[C@@H]2CCCN2C(=O)[C@H](CO)NC(=O)CNC(=O)[C@H](C(C)C)NC(=O)[C@H](C(C)C)NC1=O` (cyclo(AQDEASPLVVGSPS)) here?
The value was 39.7%.

And the inhibition (LX2 [4])?
The inhibition was “Active”.

And the Activity (LX-2 [5])?
The Activity was ~50%.

And the Activity (Mus musculus [13])?
The Activity was “Active”.

And the “inhibition (INH)” value (LX-2 [6])?
Its value is 79.8%.

What about the inhibition (LX2 [7]) of the same compound?
Its inhibition is “Active”.

And the Tmax [14]?
The Tmax was 10.2 min.

And the half-life [15]?
Its half-life is > 36 h.

What about the inhibition (LX-2 [16]) of the same compound?
Its inhibition is “Active”.

And the Activity (Mus musculus [17])?
The Activity was “Active”.

And the half-life [18]?
The half-life was 19.8 min.

And the Activity (LX-2 [8])?
The Activity was “Active”.

And the Activity (Mus musculus [19])?
Its Activity is “Active”.

And the “inhibition (INH)” value (LX-2 [9])?
Its value is 45.3%.

What about the Activity (LX-2 [10]) of the same compound?
The Activity was ~50%.

What about the inhibition (LX2 [11]) of the same compound?
Its inhibition is “Active”.

For H-VVGAPSAQDEASPL-NH2, which Activity (LX-2 [20]) is on record?
The Activity was “inactive”.

And the “inhibition (INH)” value (LX-2 [3])?
The value was 5.9%.

What about the Activity (LX-2 [21]) of the same compound?
The Activity was “inactive”.

What about the “inhibition (INH)” value (LX-2 [6]) of the same compound?
Its value is 26.7%.

And the Activity (LX-2 [22])?
The Activity was “inactive”.

What about the inhibition (LX-2 [9]) of the same compound?
The inhibition was “inactive”.

Which results are given for H-VVGSPSAADEASPL-NH2?
Activity (LX-2 [20]): inactive; inhibition (INH) (LX-2 [3]): 11.8%; Activity (LX-2 [21]): inactive; inhibition (INH) (LX-2 [6]): 19.1%; Activity (LX-2 [22]): inactive; inhibition (INH) (LX-2 [9]): 10.6%

Which results are given for H-VVGSPSAQDEASAL-NH2?
Activity (LX-2 [20]): inactive; inhibition (INH) (LX-2 [3]): 20.6%; Activity (LX-2 [21]): inactive; inhibition (INH) (LX-2 [6]): 23.9%; Activity (LX-2 [22]): inactive; inhibition (INH) (LX-2 [9]): 18.5%

For H-VVGSPSAQDEASPL-NH2, which Tmax [23] is on record?
The Tmax was 4.8 min.

What about the Activity (LX-2 [20]) of the same compound?
Its Activity is “Active”.

What about the “inhibition (INH)” value (LX-2 [3]) of the same compound?
The value was 22.5%.

And the inhibition (LX2 [4])?
Its inhibition is “Active”.

And the Activity (LX-2 [5])?
The Activity was ~50%.

And the Activity (Mus musculus [13])?
Its Activity is “Active”.

What about the Activity (LX-2 [21]) of the same compound?
Its Activity is “Active”.

What about the “inhibition (INH)” value (LX-2 [6]) of the same compound?
The value was 37%.

What about the inhibition (LX2 [7]) of the same compound?
Its inhibition is “Active”.

What about the half-life [24] of the same compound?
Its half-life is 4.8 min.

What about the Activity (Mus musculus [17]) of the same compound?
The Activity was “Active”.

What about the Activity (Mus musculus [1]) of the same compound?
Its Activity is “Active”.

And the Stability [25]?
The Stability was 40%.

And the Activity (LX-2 [8])?
Its Activity is “Active”.

What about the Activity (Mus musculus [2]) of the same compound?
The Activity was “Active”.

What about the “inhibition (INH)” value (LX-2 [9]) of the same compound?
Its value is 27.5%.

What about the Activity (LX-2 [10]) of the same compound?
The Activity was ~50%.

And the inhibition (LX2 [11])?
Its inhibition is “Active”.

And the Activity (LX-2 [12])?
The Activity was “Dose-Dependent Effect”.
